ChEMBL document CHEMBL1201862, “PubChem BioAssay data set” (2004)
Active and inactive are the calls of the source.

Key:
[1] = HEp-2 cell cytotoxicity, dose response, cytotoxicity control for RSV inhibitor project, HTS (AID 2410); type: functional; details: human respiratory syncytial virus
[2] = biological target: T1, Aryl hydrocarbon receptor (Homo sapiens, UniProt P35869); test: Luminescence-based cell-based high throughput dose response assay for activators of the Aryl Hydrocarbon Receptor (AHR). [Related pubchem assays: 2796 (Primary screen (AHR activators in singlicate)), 2845 (Confirmation screen (AHR activators in triplicate)), 434939 (Counterscreen (PXR activators in triplicate)), 2804 (Summary (AHR activators))]; type: ADME
T1 sequence (P35869 whole entry): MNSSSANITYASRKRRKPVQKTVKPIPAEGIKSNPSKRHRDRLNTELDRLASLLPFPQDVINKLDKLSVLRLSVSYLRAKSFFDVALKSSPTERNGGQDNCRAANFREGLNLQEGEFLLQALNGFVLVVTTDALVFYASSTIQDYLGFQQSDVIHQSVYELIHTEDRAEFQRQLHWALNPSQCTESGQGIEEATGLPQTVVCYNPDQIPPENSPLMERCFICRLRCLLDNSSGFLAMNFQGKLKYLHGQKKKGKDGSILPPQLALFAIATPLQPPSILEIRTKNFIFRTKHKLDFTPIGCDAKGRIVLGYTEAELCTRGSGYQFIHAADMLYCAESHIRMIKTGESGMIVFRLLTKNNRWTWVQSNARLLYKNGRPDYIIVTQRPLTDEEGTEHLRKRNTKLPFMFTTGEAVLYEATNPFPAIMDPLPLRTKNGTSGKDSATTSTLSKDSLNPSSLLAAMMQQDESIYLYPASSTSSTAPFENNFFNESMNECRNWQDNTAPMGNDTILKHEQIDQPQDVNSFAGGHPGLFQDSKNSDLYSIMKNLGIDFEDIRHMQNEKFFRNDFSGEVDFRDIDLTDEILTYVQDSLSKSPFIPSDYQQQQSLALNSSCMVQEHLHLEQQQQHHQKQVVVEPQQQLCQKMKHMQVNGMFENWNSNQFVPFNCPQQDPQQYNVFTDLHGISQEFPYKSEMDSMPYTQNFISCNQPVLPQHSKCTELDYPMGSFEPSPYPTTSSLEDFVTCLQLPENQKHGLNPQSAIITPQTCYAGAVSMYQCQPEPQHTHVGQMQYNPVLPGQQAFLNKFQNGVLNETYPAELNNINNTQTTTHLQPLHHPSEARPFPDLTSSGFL

[3] = biological target: FAD-linked sulfhydryl oxidase ALR (Homo sapiens, UniProt P55789); test: inhibitors of human ALR sulfhydryl oxidase, dose response, biochemical, H2O2 detection, luminescence, cherry-pick (AID 493248)
Chain of FAD-linked sulfhydryl oxidase ALR (P55789 whole entry): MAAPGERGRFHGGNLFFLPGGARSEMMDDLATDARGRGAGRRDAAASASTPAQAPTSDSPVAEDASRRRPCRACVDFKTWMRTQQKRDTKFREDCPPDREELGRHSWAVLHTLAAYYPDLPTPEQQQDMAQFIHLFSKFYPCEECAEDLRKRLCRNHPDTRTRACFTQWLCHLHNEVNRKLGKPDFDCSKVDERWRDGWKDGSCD

[4] = HeLa cell cytotoxicity, dose response, cytotoxicity control for MgcRacGAP inhibitor project (AID 624300); type: functional
[5] = biological target: T2, Rac GTPase-activating protein 1 (Homo sapiens, UniProt Q9H0H5); test: MgcRacGAP GTPase-activating activity inhibitors, confirmation, biochemical, ADP Hunter fluorescence, primary and confirmatory (AID 624330); type: functional
T2 sequence (Q9H0H5 whole entry): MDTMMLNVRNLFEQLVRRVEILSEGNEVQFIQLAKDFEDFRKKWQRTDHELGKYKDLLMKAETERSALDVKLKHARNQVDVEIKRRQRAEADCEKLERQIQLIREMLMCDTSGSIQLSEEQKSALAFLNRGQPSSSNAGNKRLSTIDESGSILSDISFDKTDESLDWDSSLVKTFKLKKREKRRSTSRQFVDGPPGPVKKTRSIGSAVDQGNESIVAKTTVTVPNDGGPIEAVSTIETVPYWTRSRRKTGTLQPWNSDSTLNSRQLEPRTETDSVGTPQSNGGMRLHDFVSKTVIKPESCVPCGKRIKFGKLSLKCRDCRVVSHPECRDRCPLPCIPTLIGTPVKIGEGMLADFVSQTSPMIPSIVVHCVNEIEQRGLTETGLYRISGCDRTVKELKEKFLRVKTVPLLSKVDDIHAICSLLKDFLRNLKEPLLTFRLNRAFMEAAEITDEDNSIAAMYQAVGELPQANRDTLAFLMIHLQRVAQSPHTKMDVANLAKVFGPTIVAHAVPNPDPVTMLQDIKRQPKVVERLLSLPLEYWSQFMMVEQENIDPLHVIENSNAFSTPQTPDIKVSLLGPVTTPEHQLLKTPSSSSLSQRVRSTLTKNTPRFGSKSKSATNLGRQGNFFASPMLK

[6] = biological target: T3, RNA-editing ligase 1, mitochondrial (Trypanosoma brucei brucei, UniProt P86926); test: TbREL1 ligase inhibitors, dose response, biochemical, fluorescence, Trypanosoma brucei (AID 1117295); type: functional
T3 sequence (P86926 whole entry): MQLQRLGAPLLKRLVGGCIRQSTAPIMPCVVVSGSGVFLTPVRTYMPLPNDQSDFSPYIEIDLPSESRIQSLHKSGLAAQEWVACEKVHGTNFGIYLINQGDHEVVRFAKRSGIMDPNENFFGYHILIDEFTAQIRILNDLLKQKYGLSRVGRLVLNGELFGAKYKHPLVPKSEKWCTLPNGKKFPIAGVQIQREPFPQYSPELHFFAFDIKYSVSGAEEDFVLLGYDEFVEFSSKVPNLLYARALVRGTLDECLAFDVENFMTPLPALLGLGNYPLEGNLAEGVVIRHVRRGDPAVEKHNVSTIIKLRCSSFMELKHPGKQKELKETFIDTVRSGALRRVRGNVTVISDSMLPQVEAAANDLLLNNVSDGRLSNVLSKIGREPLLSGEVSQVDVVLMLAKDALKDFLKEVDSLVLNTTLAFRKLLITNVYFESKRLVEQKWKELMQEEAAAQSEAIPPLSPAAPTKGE

[7] = P. falciparum Dd2 growth inhibitors, dose response, SYBR Green, cherry-picked samples (AID 1159567); type: functional, cell-based
[8] = HepG2 cell cytotoxicity, dose response, cytotoxicity control, cherry-picked samples (AID 1159577); type: functional, cell-based
[9] = biological target: DNA dC->dU-editing enzyme APOBEC-3A (Homo sapiens, UniProt P31941); test: Dose Response confirmation of small molecule APOBEC3A DNA Deaminase Inhibitors via a fluorescence-based single-stranded DNA deaminase assay. [Related pubchem assays (depositor defined):AID493011, AID493024]; type: functional
Chain of DNA dC->dU-editing enzyme APOBEC-3A (P31941 whole entry): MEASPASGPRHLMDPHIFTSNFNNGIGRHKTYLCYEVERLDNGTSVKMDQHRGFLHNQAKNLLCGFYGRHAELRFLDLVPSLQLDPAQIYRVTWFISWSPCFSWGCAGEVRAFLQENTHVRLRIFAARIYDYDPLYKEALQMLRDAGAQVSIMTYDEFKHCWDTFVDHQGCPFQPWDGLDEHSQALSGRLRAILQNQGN

[10] = biological target: DNA dC->dU-editing enzyme APOBEC-3G (Homo sapiens, UniProt Q9HC16); type: functional;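 further: Dose-response counterscreen measuring inhibition of APOBEC3G DNA deaminase activity, run while confirming APOBEC3A inhibitors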
Chain of DNA dC->dU-editing enzyme APOBEC-3G (Q9HC16 whole entry): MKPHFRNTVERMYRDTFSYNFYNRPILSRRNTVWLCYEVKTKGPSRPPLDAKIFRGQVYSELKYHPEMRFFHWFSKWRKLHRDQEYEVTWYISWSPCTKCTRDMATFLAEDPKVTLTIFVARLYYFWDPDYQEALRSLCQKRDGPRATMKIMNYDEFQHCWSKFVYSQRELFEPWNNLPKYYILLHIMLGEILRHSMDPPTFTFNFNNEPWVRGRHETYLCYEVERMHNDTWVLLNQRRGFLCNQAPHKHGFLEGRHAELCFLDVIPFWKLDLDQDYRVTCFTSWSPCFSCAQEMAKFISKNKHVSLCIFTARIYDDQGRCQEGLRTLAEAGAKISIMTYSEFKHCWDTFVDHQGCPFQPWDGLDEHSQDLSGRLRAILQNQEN

[11] = THP-1 cell cytotoxicity, dose response, cytotoxicity control for Vif-APOBEC3G degradation inhibitor project, THP-1 cells (AID 1117359); type: functional; details: Human immunodeficiency virus 1, THP-1
[12] = biological target: T4, NADPH oxidase 1 (Homo sapiens, UniProt Q9Y5S8); type: functional, cell-based;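 further: Cell-based assay with luminescence read-out, IC50 derived from inhibitor dose-response curves; intracellular ROS from endogenous NOX1 in intact HT29 colon cancer cells; potency of inhibitors that lower the ROS luminescence signal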
T4 sequence (Q9Y5S8 whole entry): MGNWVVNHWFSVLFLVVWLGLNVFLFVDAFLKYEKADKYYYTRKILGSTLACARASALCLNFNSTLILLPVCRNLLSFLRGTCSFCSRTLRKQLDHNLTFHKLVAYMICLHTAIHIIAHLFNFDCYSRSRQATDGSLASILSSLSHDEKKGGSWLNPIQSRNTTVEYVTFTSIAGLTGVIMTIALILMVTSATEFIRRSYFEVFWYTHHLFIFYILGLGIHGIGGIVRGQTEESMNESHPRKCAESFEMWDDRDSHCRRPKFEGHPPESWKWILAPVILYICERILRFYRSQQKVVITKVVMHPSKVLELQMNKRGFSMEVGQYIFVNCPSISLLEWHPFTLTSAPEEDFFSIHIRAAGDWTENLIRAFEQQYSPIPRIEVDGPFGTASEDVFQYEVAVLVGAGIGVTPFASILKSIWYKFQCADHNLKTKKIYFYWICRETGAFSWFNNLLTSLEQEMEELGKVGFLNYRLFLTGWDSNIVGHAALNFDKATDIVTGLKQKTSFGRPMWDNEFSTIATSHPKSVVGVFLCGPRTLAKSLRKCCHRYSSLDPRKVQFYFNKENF

COc1ccc(/C=N/Nc2nc3ccccc3[nH]2)cc1OC
CC50 [1]: 20.8 µM (active) | EC50 [2]: 3.46 µM (active) | AC50 [3]: 0.285 µM (active) | CC50 [4]: 100 µM (active) | IC50 [5]: 74 µM (active)

COC(=O)C1=C(C)N(Cc2cccc(C(F)(F)F)c2)C(NCc2cc(OC)c(OC)c(OC)c2)=NC1CCc1ccccc1 (stereo not drawn)
IC50 [6]: > 96.6 µM (inactive)

CN(C)CC(=O)N[C@@H]1C[C@@H]2O[C@@H](CO)CC[C@@H]2O[C@@H]1CCc1ccc(C2=CCCCC2)cc1
AC50 [7]: 6.13 µM (active) | AC50 [8]: 27.7 µM (active)

C#CCn1cc(/C=N/NC(=O)COc2cccc3cccnc23)c2ccccc21
EC50 [2]: > 0.377 µM (active) | IC50 [9]: > 100 µM (inactive) | IC50 [10]: > 100 µM (inactive)

O=C(NCCC1CCCCN1S(=O)(=O)c1ccc(F)cc1)C(=O)NCc1ccccn1 (stereo not drawn)
CC50 [11]: > 40 µM (active)

Fc1ccc2c(c1)Sc1ccccc1N2
IC50 [12]: 0.24 µM (active)
